Drawing on patent US11254663B2 (BRISTOL-MYERS SQUIBB COMPANY, priority 2019, dated 2022), this text covers EC50 for 24 compounds.

In this test the target is FXR (Homo sapiens (Human), UniProt Q96RI1). Put plainly: FXR EC50 (FXR agonist potency reported with each Example). In kind it is cell-based.
Sequence of FXR (Q96RI1 262-486): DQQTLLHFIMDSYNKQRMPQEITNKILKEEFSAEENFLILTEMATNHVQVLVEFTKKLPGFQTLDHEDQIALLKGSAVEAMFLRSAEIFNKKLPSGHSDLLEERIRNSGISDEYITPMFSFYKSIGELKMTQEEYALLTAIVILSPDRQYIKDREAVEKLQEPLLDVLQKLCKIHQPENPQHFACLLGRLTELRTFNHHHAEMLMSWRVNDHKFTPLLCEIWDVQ
`O=C(N(CC12CCC(c3nc(C4CC4)no3)(CC1)CC2)c1cccc(-c2cnc(C3CCOCC3)o2)c1)C12CC(F)(C1)C2` [Example 35, N-((4-(3-cyclopropyl-1,2,4-oxadiazol-5-yl)bicyclo[2.2.2]octan-1-yl)methyl)-3-fluoro-N-(3-(2-(tetrahydro-2H-pyran-4-yl)oxazol-5-yl)phenyl)bicyclo[1.1.1]pentane-1-carboxamide] returned a 50% effective concentration (EC50) of 251 nM. This lies in the sub-micromolar range.

For `O=C(C1CC(F)(F)C1)N(CC12CCC(c3nc(C4CC4)no3)(CC1)CC2)c1cccc(-c2cnc(C3CCOCC3)o2)c1` [Example 36, N-((4-(3-cyclopropyl-1,2,4-oxadiazol-5-yl)bicyclo[2.2.2]octan-1-yl)methyl)-3,3-difluoro-N-(3-(2-(tetrahydro-2H-pyran-4-yl)oxazol-5-yl)phenyl)cyclobutane-1-carboxamide], the EC50 was 497 nM.

In the case of `Cc1cnc(C23CCC(CN(C(=O)C45CC(F)(C4)C5)c4cccc(-c5nc(C6CC6)no5)c4)(CC2)CC3)o1` [Example 37, N-(3-(3-cyclopropyl-1,2,4-oxadiazol-5-yl)phenyl)-3-fluoro-N-((4-(5-methyloxazol-2-yl)bicyclo[2.2.2]octan-1-yl)methyl)bicyclo[1.1.1]pentane-1-carboxamide], the 50% effective concentration (EC50) was 82 nM. This EC50 lies about 6.1-fold lower than the previous one.

Consider `Cc1cnc(C23CCC(CN(C(=O)C4CCC(F)(F)C4)c4cccc(-c5nc(C6CC6)no5)c4)(CC2)CC3)o1` (stereo not drawn) [Example 39, N-(3-(3-cyclopropyl-1,2,4-oxadiazol-5-yl)phenyl)-3,3-difluoro-N-((4-(5-methyloxazol-2-yl)bicyclo[2.2.2]octan-1-yl)methyl)cyclopentane-1-carboxamide], for which a half-maximal effect (EC50) was put at 308 nM.

As for `O=C(N(CC12CCC(c3nc(C4CC4)no3)(CC1)CC2)c1cccc(-c2nc(C(F)F)co2)c1)C12CC(F)(C1)C2` [Example 40, N-((4-(3-cyclopropyl-1,2,4-oxadiazol-5-yl)bicyclo[2.2.2]octan-1-yl)methyl)-N-(3-(4-(difluoromethyl)oxazol-2-yl)phenyl)-3-fluorobicyclo[1.1.1]pentane-1-carboxamide], the concentration for a half-maximal effect (EC50) came to 243 nM.

On to `O=C(C1CC(F)(F)C1)N(CC12CCC(c3nc(C4CC4)no3)(CC1)CC2)c1cccc(-c2nc(C(F)F)co2)c1` [Example 41, N-((4-(3-cyclopropyl-1,2,4-oxadiazol-5-yl)bicyclo[2.2.2]octan-1-yl)methyl)-N-(3-(4-(difluoromethyl)oxazol-2-yl)phenyl)-3,3-difluorocyclobutane-1-carboxamide], for which the EC50 was found to be 465 nM.

`O=C([C@H]1C[C@](O)(C(F)(F)F)C1)N(CC12CCC(c3nc(C4CC4)no3)(CC1)CC2)c1cccc(-c2nc(C(F)F)co2)c1` [Example 42, (1s, 3s)-N-((4-(3-cyclopropyl-1,2,4-oxadiazol-5-yl)bicyclo[2.2.2]octan-1-yl)methyl)-N-(3-(4-(difluoromethyl)oxazol-2-yl)phenyl)-3-hydroxy-3-(trifluoromethyl)cyclobutane-1-carboxamide] came in with a 50% effective concentration (EC50) of 613 nM.

`O=C(C1CC(C(F)F)C1)N(CC12CCC(c3nc(C4CC4)no3)(CC1)CC2)c1cccc(-c2nc(C(F)F)co2)c1` (stereo not drawn) [Example 43, N-((4-(3-cyclopropyl-1,2,4-oxadiazol-5-yl)bicyclo[2.2.2]octan-1-yl)methyl)-3-(difluoromethyl)-N-(3-(4-(difluoromethyl)oxazol-2-yl)phenyl)cyclobutane-1-carboxamide] gave a half-maximal effective concentration (EC50) of 851 nM.

`O=C(C1CCC(F)(F)C1)N(CC12CCC(c3nc(C4CC4)no3)(CC1)CC2)c1cccc(-c2nc(C(F)F)co2)c1` (stereo not drawn) [Example 44, N-((4-(3-cyclopropyl-1,2,4-oxadiazol-5-yl)bicyclo[2.2.2]octan-1-yl)methyl)-N-(3-(4-(difluoromethyl)oxazol-2-yl)phenyl)-3,3-difluorocyclopentane-1-carboxamide] yielded an EC50 of 646 nM. The EC50 values of the last two compounds are within 1.5-fold of each other.

In turn, `Cc1cnc(C23CCC(CN(C(=O)C45CC(F)(C4)C5)c4cccc(-c5nc(C(F)F)co5)c4)(CC2)CC3)o1` [Example 45, N-(3-(4-(difluoromethyl)oxazol-2-yl)phenyl)-3-fluoro-N-((4-(5-methyloxazol-2-yl)bicyclo[2.2.2]octan-1-yl)methyl)bicyclo[1.1.1]pentane-1-carboxamide] displayed a 50% effective concentration (EC50) of 258 nM. This EC50 lies about 2.5-fold lower than the previous one.

In turn, `Cc1cnc(C23CCC(CN(c4cccc(-c5nc(C(F)F)co5)c4)C(=O)[C@H]4C[C@](O)(C(F)(F)F)C4)(CC2)CC3)o1` [Example 46, (cis)-N-(3-(4-(difluoromethyl)oxazol-2-yl)phenyl)-3-hydroxy-N-((4-(5-methyloxazol-2-yl)bicyclo[2.2.2]octan-1-yl)methyl)-3-(trifluoromethyl)cyclobutane-1-carboxamide] showed an EC50 of 437 nM.

`CCc1noc(-c2cccc(N(CC34CCC(c5ccc(C(C)(C)C#N)cc5)(CC3)OC4)C(=O)C34CC(F)(C3)C4)c2)n1` [Example 47, N-((1-(4-(2-cyanopropan-2-yl)phenyl)-2-oxabicyclo[2.2.2]octan-4-yl)methyl)-N-(3-(3-ethyl-1,2,4-oxadiazol-5-yl)phenyl)-3-fluorobicyclo[1.1.1]pentane-1-carboxamide] registered an EC50 of 299 nM.

`CCc1noc(-c2cccc(N(CC34CCC(c5ccc(C(C)(C)C#N)cc5)(CC3)OC4)C(=O)C3CCC3)c2)n1` [Example 48, N-((1-(4-(2-cyanopropan-2-yl)phenyl)-2-oxabicyclo[2.2.2]octan-4-yl)methyl)-N-(3-(3-ethyl-1,2,4-oxadiazol-5-yl)phenyl)cyclobutanecarboxamide] registered an EC50 of 299 nM.

In turn, `O=C(C1CC(F)(F)C1)N(CC12CCC(c3cc(C(F)(F)F)ccn3)(CC1)CC2)c1cccc(-c2nc(C3CC3)no2)c1` [Example 49, N-(3-(3-cyclopropyl-1,2,4-oxadiazol-5-yl)phenyl)-3,3-difluoro-N-((4-(4-(trifluoromethyl)pyridin-2-yl)bicyclo[2.2.2]octan-1-yl)methyl)cyclobutane-1-carboxamide] showed a concentration giving a half-maximal response (EC50) of 1370 nM.

The compound `O=C(N(CC12CCC(c3cc(C(F)(F)F)ccn3)(CC1)CC2)c1cccc(-c2nc(C3CC3)no2)c1)C12CC(F)(C1)C2` [Example 50, N-(3-(3-cyclopropyl-1,2,4-oxadiazol-5-yl)phenyl)-3-fluoro-N-((4-(4-(trifluoromethyl)pyridin-2-yl)bicyclo[2.2.2]octan-1-yl)methyl)bicyclo[1.1.1]pentane-1-carboxamide] had a half-maximal effective concentration (EC50) of 462 nM.

`CCOc1ncc(-c2cccc(N(CC34CCC(c5ccc(C(C)(C)C#N)cc5)(CC3)OC4)C(=O)C34CC(F)(C3)C4)c2)o1` [Example 51, N-((1-(4-(2-cyanopropan-2-yl)phenyl)-2-oxabicyclo[2.2.2]octan-4-yl)methyl)-N-(3-(2-ethoxyoxazol-5-yl)phenyl)-3-fluorobicyclo[1.1.1]pentane-1-carboxamide]: it took 25 nM to reach a half-maximal effect (EC50).

The compound `CCCc1ncc(-c2cccc(N(CC34CCC(c5cc(C(F)(F)F)ccn5)(CC3)CC4)C(=O)C34CC(F)(C3)C4)c2)o1` [Example 52, 3-fluoro-N-(3-(2-propyloxazol-5-yl)phenyl)-N-((4-(4-(trifluoromethyl)pyridin-2-yl)bicyclo[2.2.2]octan-1-yl)methyl)bicyclo[1.1.1]pentane-1-carboxamide] returned a concentration for a half-maximal effect (EC50) of 242 nM.

`CCOc1nnc(-c2cccc(N(CC34CCC(c5nc(C6CC6)no5)(CC3)CC4)C(=O)C34CC(F)(C3)C4)c2)o1` [Example 53, N-((4-(3-cyclopropyl-1,2,4-oxadiazol-5-yl)bicyclo[2.2.2]octan-1-yl)methyl)-N-(3-(5-ethoxy-1,3,4-oxadiazol-2-yl)phenyl)-3-fluorobicyclo[1.1.1]pentane-1-carboxamide] yielded a concentration giving a half-maximal response (EC50) of 81 nM.

`CCOc1nnc(-c2cccc(N(CC34CCC(c5nc(C6CC6)no5)(CC3)CC4)C(=O)C3CCC3)c2)o1` [Example 54, N-((4-(3-cyclopropyl-1,2,4-oxadiazol-5-yl)bicyclo[2.2.2]octan-1-yl)methyl)-N-(3-(5-ethoxy-1,3,4-oxadiazol-2-yl)phenyl)cyclobutanecarboxamide] gave an EC50 of 215 nM.

In the case of `CCOc1nnc(-c2cccc(N(CC34CCC(c5nc(C6CC6)no5)(CC3)CC4)C(=O)C3CCC(F)(F)C3)c2)o1` (stereo not drawn) [Example 55, N-((4-(3-cyclopropyl-1,2,4-oxadiazol-5-yl)bicyclo[2.2.2]octan-1-yl)methyl)-N-(3-(5-ethoxy-1,3,4-oxadiazol-2-yl)phenyl)-3,3-difluorocyclopentane-1-carboxamide], the EC50 is 127 nM.

Take `CCOc1nnc(-c2cccc(N(CC34CCC(c5nc(C6CC6)no5)(CC3)CC4)C(=O)C3CC(C(F)F)C3)c2)o1` (stereo not drawn) [Example 56, N-((4-(3-cyclopropyl-1,2,4-oxadiazol-5-yl)bicyclo[2.2.2]octan-1-yl)methyl)-3-(difluoromethyl)-N-(3-(5-ethoxy-1,3,4-oxadiazol-2-yl)phenyl)cyclobutane-1-carboxamide]: it took 275 nM to reach a half-maximal effect (EC50).

`O=C(N(CC12CCC(c3nc(C4CC4)no3)(CC1)CC2)c1cccc(-c2cc(C3CC3)on2)c1)C12CC(F)(C1)C2` [Example 57, N-((4-(3-cyclopropyl-1,2,4-oxadiazol-5-yl)bicyclo[2.2.2]octan-1-yl)methyl)-N-(3-(5-cyclopropylisoxazol-3-yl)phenyl)-3-fluorobicyclo[1.1.1]pentane-1-carboxamide] returned a half-maximal effective concentration (EC50) of 19.8 nM.

`O=C(C1CC(C(F)F)C1)N(CC12CCC(c3nc(C4CC4)no3)(CC1)CC2)c1cccc(-c2cc(C3CC3)on2)c1` (stereo not drawn) [Example 58, N-((4-(3-cyclopropyl-1,2,4-oxadiazol-5-yl)bicyclo[2.2.2]octan-1-yl)methyl)-N-(3-(5-cyclopropylisoxazol-3-yl)phenyl)-3-(difluoromethyl)cyclobutane-1-carboxamide] returned an EC50 of 39 nM.

The compound `O=C(C1CCC(F)(F)C1)N(CC12CCC(c3nc(C4CC4)no3)(CC1)CC2)c1cccc(-c2cc(C3CC3)on2)c1` (stereo not drawn) [Example 59, N-((4-(3-cyclopropyl-1,2,4-oxadiazol-5-yl)bicyclo[2.2.2]octan-1-yl)methyl)-N-(3-(5-cyclopropylisoxazol-3-yl)phenyl)-3,3-difluorocyclopentane-1-carboxamide] displayed an EC50 of 70 nM.

The term EC50 denotes the concentration at which the effect is half-maximal. Low values mean a more potent agent, high ones a less potent agent.
